Our source for the IC50 values is BindingDB's records for doi:10.1021/jf000548p (Institut Pasteur Korea, 2020).

Molecules are shown by their SMILES.

One test concerns the target Cytochrome P450 3A4 (Homo sapiens, UniProt P08684). As to the kind of experiment: Inhibition of CYP3A4 (unknown origin).
Another test deals with Cytochrome P450 2D6 (Homo sapiens, UniProt P10635). As to the kind of experiment: Inhibition of CYP2D6 (unknown origin).
In test [1] the target is Potassium voltage-gated channel subfamily H member 2 (Homo sapiens, UniProt Q12809). As to the kind of experiment: Inhibition of hERG.
The next test deals with Cytochrome P450 2C19 (Homo sapiens, UniProt P33261). As to the kind of experiment: Inhibition of CYP2C19 (unknown origin).
For another test, the target named is Cytochrome P450 2C9 (Homo sapiens, UniProt P11712). As to the kind of experiment: Inhibition of CYP2C9 (unknown origin).
The next test addresses T1, Cytochrome P450 1A2 (Homo sapiens, UniProt P05177).
T1 sequence (P05177 whole entry): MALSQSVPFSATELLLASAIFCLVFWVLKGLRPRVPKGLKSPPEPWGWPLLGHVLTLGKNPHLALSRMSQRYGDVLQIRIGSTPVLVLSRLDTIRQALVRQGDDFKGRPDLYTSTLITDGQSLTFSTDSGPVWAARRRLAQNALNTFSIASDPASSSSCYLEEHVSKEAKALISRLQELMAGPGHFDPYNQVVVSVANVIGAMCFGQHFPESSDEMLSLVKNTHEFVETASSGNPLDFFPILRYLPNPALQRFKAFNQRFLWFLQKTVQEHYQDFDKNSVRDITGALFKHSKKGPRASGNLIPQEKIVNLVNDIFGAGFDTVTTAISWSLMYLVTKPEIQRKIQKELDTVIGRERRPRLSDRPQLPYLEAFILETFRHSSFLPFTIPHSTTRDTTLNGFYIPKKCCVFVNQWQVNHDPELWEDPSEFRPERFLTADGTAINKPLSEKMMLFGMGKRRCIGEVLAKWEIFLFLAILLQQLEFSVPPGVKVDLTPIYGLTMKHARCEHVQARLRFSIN
Kind of test: Inhibition of CYP1A2 (unknown origin).

Cytochrome P450 2D6, sequence (P10635 whole entry): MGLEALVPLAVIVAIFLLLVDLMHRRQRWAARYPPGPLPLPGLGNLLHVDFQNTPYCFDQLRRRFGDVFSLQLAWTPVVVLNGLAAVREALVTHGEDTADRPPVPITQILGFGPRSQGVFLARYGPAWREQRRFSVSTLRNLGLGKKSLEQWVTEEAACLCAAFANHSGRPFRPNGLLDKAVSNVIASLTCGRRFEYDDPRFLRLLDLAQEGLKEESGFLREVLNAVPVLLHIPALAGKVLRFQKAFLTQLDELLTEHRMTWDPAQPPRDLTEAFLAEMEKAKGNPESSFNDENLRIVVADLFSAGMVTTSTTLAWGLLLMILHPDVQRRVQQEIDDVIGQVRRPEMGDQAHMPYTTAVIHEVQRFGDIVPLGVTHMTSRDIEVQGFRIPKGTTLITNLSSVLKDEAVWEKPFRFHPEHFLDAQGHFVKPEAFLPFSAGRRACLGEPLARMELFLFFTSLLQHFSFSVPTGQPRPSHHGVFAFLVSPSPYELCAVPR
Potassium voltage-gated channel subfamily H member 2, sequence (Q12809 whole entry): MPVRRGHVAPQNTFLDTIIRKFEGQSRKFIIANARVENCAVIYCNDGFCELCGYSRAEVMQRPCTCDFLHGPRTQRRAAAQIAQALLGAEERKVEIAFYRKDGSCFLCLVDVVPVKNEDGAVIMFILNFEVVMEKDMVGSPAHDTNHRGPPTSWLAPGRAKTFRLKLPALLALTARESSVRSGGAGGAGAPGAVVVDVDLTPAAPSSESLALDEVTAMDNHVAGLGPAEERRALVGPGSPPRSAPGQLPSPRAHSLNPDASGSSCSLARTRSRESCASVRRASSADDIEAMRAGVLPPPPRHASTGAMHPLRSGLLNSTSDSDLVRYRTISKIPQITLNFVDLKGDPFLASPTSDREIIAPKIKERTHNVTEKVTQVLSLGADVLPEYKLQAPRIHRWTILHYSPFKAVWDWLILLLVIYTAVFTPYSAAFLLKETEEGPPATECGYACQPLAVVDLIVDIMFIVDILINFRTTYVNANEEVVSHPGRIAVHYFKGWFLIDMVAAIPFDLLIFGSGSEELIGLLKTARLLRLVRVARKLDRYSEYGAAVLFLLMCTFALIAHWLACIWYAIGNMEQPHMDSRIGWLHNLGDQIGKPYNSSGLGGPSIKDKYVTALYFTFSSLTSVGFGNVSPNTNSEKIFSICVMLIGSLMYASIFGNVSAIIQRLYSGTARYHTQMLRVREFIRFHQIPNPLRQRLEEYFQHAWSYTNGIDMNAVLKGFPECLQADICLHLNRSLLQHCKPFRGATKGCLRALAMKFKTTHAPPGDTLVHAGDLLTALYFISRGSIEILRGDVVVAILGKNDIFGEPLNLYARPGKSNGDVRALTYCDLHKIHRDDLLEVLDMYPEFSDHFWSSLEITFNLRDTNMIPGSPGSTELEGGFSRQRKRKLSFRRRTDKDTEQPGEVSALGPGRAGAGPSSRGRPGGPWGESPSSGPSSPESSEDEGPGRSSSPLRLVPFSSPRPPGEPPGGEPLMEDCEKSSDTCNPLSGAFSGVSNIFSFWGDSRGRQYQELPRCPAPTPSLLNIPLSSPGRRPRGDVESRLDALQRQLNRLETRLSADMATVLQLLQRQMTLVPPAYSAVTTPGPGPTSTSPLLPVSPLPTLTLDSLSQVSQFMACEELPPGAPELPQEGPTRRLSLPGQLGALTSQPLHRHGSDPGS
Cytochrome P450 3A4, sequence (P08684 whole entry): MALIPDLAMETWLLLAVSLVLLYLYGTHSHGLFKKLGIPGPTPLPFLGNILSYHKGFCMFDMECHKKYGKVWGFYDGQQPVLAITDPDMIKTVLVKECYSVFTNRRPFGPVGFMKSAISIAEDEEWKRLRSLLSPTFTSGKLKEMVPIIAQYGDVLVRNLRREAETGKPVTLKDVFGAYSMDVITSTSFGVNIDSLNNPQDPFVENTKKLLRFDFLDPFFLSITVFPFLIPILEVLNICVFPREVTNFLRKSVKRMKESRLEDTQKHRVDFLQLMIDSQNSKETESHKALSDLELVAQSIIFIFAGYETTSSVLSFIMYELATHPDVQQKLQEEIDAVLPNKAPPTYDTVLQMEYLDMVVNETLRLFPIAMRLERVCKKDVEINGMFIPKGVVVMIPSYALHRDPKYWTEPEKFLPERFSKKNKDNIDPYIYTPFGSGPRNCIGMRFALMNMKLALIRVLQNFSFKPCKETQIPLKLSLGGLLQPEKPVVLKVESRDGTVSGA
Cytochrome P450 2C9, sequence (P11712 whole entry): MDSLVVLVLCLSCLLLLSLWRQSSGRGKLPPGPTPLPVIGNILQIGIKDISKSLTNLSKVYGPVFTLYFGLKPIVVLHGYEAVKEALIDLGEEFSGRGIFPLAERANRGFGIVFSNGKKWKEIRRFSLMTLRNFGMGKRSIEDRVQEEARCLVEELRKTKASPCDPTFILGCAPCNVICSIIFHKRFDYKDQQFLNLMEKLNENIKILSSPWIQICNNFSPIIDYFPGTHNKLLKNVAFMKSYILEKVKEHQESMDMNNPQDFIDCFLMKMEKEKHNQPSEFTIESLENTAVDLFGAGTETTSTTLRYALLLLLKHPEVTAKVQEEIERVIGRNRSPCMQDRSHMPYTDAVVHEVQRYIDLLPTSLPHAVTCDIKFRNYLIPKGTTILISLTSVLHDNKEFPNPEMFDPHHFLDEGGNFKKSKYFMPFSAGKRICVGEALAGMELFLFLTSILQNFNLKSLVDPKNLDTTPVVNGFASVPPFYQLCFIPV
Cytochrome P450 2C19, sequence (P33261 whole entry): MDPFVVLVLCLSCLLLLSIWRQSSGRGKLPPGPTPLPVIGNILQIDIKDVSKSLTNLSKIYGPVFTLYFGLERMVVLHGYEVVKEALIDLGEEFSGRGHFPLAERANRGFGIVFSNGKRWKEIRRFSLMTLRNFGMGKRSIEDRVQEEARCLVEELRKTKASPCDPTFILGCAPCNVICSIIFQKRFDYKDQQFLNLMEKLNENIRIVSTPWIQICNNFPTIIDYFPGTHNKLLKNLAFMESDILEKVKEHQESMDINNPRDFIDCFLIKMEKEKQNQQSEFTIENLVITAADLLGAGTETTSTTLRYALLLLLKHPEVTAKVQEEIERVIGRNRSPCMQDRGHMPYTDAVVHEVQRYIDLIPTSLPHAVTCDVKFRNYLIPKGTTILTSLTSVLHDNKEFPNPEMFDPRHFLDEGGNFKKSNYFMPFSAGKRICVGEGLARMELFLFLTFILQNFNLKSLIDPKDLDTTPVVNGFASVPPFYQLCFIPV

In the case of `Cc1nc2cc(NC(=O)c3cc4sc(N5CCC(C(=O)N(C)C)CC5)nc4s3)ccc2o1`, the IC50 (in general, the concentration at which inhibition is half-maximal) against Cytochrome P450 3A4 is over 50 µM; at Cytochrome P450 2D6 it was over 50 µM; in test [1] it was over 30 µM; against Cytochrome P450 2C19, over 50 µM; on Cytochrome P450 2C9, over 50 µM; at Cytochrome P450 1A2 it was over 50 µM.

Turning to `O=C(Nc1ccc(-c2ccc(F)cn2)cc1)c1cc2sc(NCCN3CCOCC3)nc2s1`, the IC50 on Cytochrome P450 3A4 is 6.95 µM; on Cytochrome P450 2D6, 6.85 µM; in test [1], 27.6 µM; against Cytochrome P450 2C19, over 100 µM; at Cytochrome P450 2C9 it was 7.41 µM; on Cytochrome P450 1A2 it was over 100 µM.
